“And” between values parts separate entries of the source, which are not always exact repeats. Equal entries are not always repeated. Inconclusive results and toxic doses are left out.
Test system: P388 leukemia ip, CD2F1 mice, survival T/C
Assay: NCI In Vivo Anticancer Drug Screen. Data for tumor model P388 Leukemia (intraperitoneal) in CD2F1 (CDF1) mice
Conditions: endpoint: median survival time, higher = longer survival
Procedure, shortened: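 Mice carrying the transplanted tumor received test compound or vehicle. Survival was recorded in each group, and the value is the treated-group measurement divided by that of the vehicle-treated control group.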

[1] = dose: 50.0 mg/kg/injection, schedule: Q01DX005 (ip), vehicle: Klucel (hydroxypropylcellulose) (HPC)
[2] = dose: 100.0 mg/kg/injection, schedule: Q01DX005 (ip), vehicle: Klucel (hydroxypropylcellulose) (HPC)
[3] = dose: 200.0 mg/kg/injection, schedule: Q01DX005 (ip), vehicle: Klucel (hydroxypropylcellulose) (HPC)
[4] = dose: 100.0 mg/kg/injection, schedule: Q04DX002 (ip), vehicle: suspension in saline
[5] = dose: 200.0 mg/kg/injection, schedule: Q04DX002 (ip), vehicle: suspension in saline
[6] = dose: 60.0 mg/kg/injection, schedule: Q01DX005 (ip), vehicle: saline
[7] = dose: 120.0 mg/kg/injection, schedule: Q01DX005 (ip), vehicle: saline
[8] = dose: 240.0 mg/kg/injection, schedule: Q01DX005 (ip), vehicle: saline

In the case of COc1cc(C2c3cc4c(cc3[C@@H](OC3OC5CO[C@@H](c6cccs6)OC5C(O)C3O)[C@H]3COC(=O)C23)OCO4)cc(OC)c1OC (stereo not given in full), the T/C (dose: 2.0 mg/kg/injection, schedule: Q01DX005 (ip), vehicle: saline) is reported as 123 % of control, the T/C (dose: 8.0 mg/kg/injection, schedule: Q01DX005 (ip), vehicle: saline) is reported as 155 % of control and the T/C (dose: 16.0 mg/kg/injection, schedule: Q01DX005 (ip), vehicle: saline) is reported as 175 % of control and 185 % of control. The T/C (dose: 32.0 mg/kg/injection, schedule: Q01DX005 (ip), vehicle: saline) was 203 % of control and the T/C (dose: 64.0 mg/kg/injection, schedule: Q01DX005 (ip), vehicle: saline) was 225 % of control.
For CC(C)C(/C=C/c1ccccc1)=N\NS(=O)(=O)c1ccccc1, the T/C (dose: 100.0 mg/kg/injection, schedule: Q01DX001 (ip), vehicle: saline with Tween-80) was 105 % of control, the T/C (dose: 200.0 mg/kg/injection, schedule: Q01DX001 (ip), vehicle: saline with Tween-80) was 98 % of control and the T/C (dose: 400.0 mg/kg/injection, schedule: Q01DX001 (ip), vehicle: saline with Tween-80) was 96 % of control.
In the case of OCC(O)C(O)C(O)C(O)CO.[Cu+2].[Cu] (stereo not given), the T/C (dose: 3.12 mg/kg/injection, schedule: Q01DX005 (ip), vehicle: Klucel (hydroxypropylcellulose) (HPC)) is reported as 88 % of control and the T/C (dose: 6.25 mg/kg/injection, schedule: Q01DX005 (ip), vehicle: Klucel (hydroxypropylcellulose) (HPC)) is reported as 92 % of control.
In the case of CC1=CCC2C3(C)C=CC(=O)C(C)(C)C3CC3OC(=O)C=C1C32C (stereo not given), the T/C (dose: 0.75 mg/kg/injection, schedule: Q01DX009 (ip), vehicle: Klucel (hydroxypropylcellulose) (HPC)) is reported as 102 % of control, the T/C (dose: 1.5 mg/kg/injection, schedule: Q01DX009 (ip), vehicle: Klucel (hydroxypropylcellulose) (HPC)) is reported as 98 % of control and 102 % of control and the T/C (dose: 3.0 mg/kg/injection, schedule: Q01DX009 (ip), vehicle: Klucel (hydroxypropylcellulose) (HPC)) is reported as 101 % of control. The T/C (dose: 6.0 mg/kg/injection, schedule: Q01DX009 (ip), vehicle: Klucel (hydroxypropylcellulose) (HPC)) was 97 % of control, the T/C (dose: 12.0 mg/kg/injection, schedule: Q01DX009 (ip), vehicle: Klucel (hydroxypropylcellulose) (HPC)) was 100 % of control and 97 % of control and the T/C (dose: 24.0 mg/kg/injection, schedule: Q01DX009 (ip), vehicle: Klucel (hydroxypropylcellulose) (HPC)) was 100 % of control.
In the case of O=C1CN=C(c2ccccc2)c2cc(Cl)ccc2N1CC1CC1, the T/C (dose: 100.0 mg/kg/injection, schedule: Q04DX003 (ip), vehicle: saline) is reported as 100 % of control, the T/C (dose: 200.0 mg/kg/injection, schedule: Q04DX003 (ip), vehicle: saline) is reported as 94 % of control and the T/C (dose: 400.0 mg/kg/injection, schedule: Q04DX003 (ip), vehicle: saline) is reported as 101 % of control.
For COc1ccc(/C=C2/Oc3c(Br)c(OC)cc(OC)c3C2=O)cc1, the T/C (dose: 25.0 mg/kg/injection, schedule: Q01DX005 (ip), vehicle: Klucel (hydroxypropylcellulose) (HPC)) was 98 % of control, the T/C [1] was 98 % of control and the T/C [2] was 96 % of control. For the same compound, the T/C [3] was 97 % of control.
With CC1CCCC(C2CC3CCCCC3C(N)[N-]2)[N-]1.CC1CCCC(C2CC3CCCCC3C(N)[N-]2)[N-]1.O=[N+]([O-])O.[Cu+2] (stereo not given) the T/C [4] was 105 % of control and the T/C [5] was 112 % of control.
In the case of COc1ccc(C2=NC(c3ccccc3)N3C(c4ccccc4)NC(c4ccccc4)C2C3c2ccccc2)cc1 (stereo not given), the T/C (dose: 12.5 mg/kg/injection, schedule: Q01DX009 (ip), vehicle: saline with Tween-80) is reported as 100 % of control, the T/C (dose: 25.0 mg/kg/injection, schedule: Q01DX009 (ip), vehicle: saline with Tween-80) is reported as 90 % of control and the T/C (dose: 50.0 mg/kg/injection, schedule: Q01DX009 (ip), vehicle: saline with Tween-80) is reported as 90 % of control and 93 % of control. The T/C (dose: 200.0 mg/kg/injection, schedule: Q01DX009 (ip), vehicle: saline with Tween-80) was 91 % of control.
For Cc1onc(-c2c(F)cccc2Cl)c1-c1ncc(-c2ccc(Br)cc2)o1, the T/C (dose: 60.0 mg/kg/injection, schedule: Q01DX005 (ip), vehicle: saline with Tween-80) was 100 % of control, the T/C (dose: 120.0 mg/kg/injection, schedule: Q01DX005 (ip), vehicle: saline with Tween-80) was 104 % of control and the T/C (dose: 240.0 mg/kg/injection, schedule: Q01DX005 (ip), vehicle: saline with Tween-80) was 101 % of control.
With CC/C(=C(\CC)c1ccc(OCCN(C)C)cc1)c1ccc(OCCN(C)C)cc1 the T/C (dose: 6.25 mg/kg/injection, schedule: Q01DX005 (ip), vehicle: saline) was 104 % of control and the T/C (dose: 12.5 mg/kg/injection, schedule: Q01DX005 (ip), vehicle: saline) was 98 % of control.
In the case of C=C(c1ccc(OC)c(OC)c1)c1nccc2cc(OC)c(OC)cc12, the T/C [1] is reported as 98 % of control, the T/C [2] is reported as 96 % of control and the T/C [3] is reported as 100 % of control.
C[CH2][Ge]([CH2]C)[CH2]C(=O)OC.C[CH2][Ge]([CH2]C)[CH2]C(=O)OC was tested, and the T/C [1] was 100 % of control, the T/C [2] was 100 % of control and the T/C [3] was 101 % of control.
CCOC(=O)C1=NN(c2ccccc2)CC1C(=O)OC (stereo not given) was tested, and the T/C (dose: 50.0 mg/kg/injection, schedule: Q04DX002 (ip), vehicle: suspension in saline) was 103 % of control, the T/C [4] was 100 % of control and the T/C [5] was 98 % of control.
For OC(Cn1cccc1)Cn1cccc1, the T/C [6] was 100 % of control, the T/C [7] was 103 % of control and the T/C [8] was 100 % of control.
In the case of CCCCCC(O)(CCCCC)CCCCC, the T/C [6] is reported as 101 % of control, the T/C [7] is reported as 101 % of control and the T/C [8] is reported as 92 % of control.
CNc1nc(-c2ccc(C(C)(C)C)cc2)c(-c2ccc(C(C)(C)C)cc2)[nH]1 was tested, and the T/C (dose: 25.0 mg/kg/injection, schedule: Q04DX002 (ip), vehicle: saline with Tween-80) was 117 % of control and 96 % of control and the T/C (dose: 50.0 mg/kg/injection, schedule: Q04DX002 (ip), vehicle: saline with Tween-80) was 107 % of control and 121 % of control.
In the case of COC1=CC(=O)c2nc(Cl)ccc2C1=O, the T/C (dose: 6.25 mg/kg/injection, schedule: Q01DX005 (ip), vehicle: saline with Tween-80) is reported as 100 % of control, the T/C (dose: 12.5 mg/kg/injection, schedule: Q01DX005 (ip), vehicle: saline with Tween-80) is reported as 100 % of control and the T/C (dose: 25.0 mg/kg/injection, schedule: Q01DX005 (ip), vehicle: saline with Tween-80) is reported as 108 % of control and 92 % of control. The T/C (dose: 50.0 mg/kg/injection, schedule: Q01DX005 (ip), vehicle: saline with Tween-80) was 100 % of control.
In the case of O=C1c2ccccc2C(=O)N1c1nncs1, the T/C (dose: 100.0 mg/kg/injection, schedule: Q04DX002 (ip), vehicle: saline with Tween-80) is reported as 99 % of control, the T/C (dose: 200.0 mg/kg/injection, schedule: Q04DX002 (ip), vehicle: saline with Tween-80) is reported as 99 % of control and the T/C (dose: 400.0 mg/kg/injection, schedule: Q04DX002 (ip), vehicle: saline with Tween-80) is reported as 101 % of control.
In the case of CCCCN(CCCC)CCN1C(=O)c2ccccc2S1(=O)=O, the T/C (dose: 50.0 mg/kg/injection, schedule: Q01DX005 (ip), vehicle: saline) is reported as 104 % of control, the T/C (dose: 100.0 mg/kg/injection, schedule: Q01DX005 (ip), vehicle: saline) is reported as 109 % of control and the T/C (dose: 200.0 mg/kg/injection, schedule: Q01DX005 (ip), vehicle: saline) is reported as 102 % of control.
In the case of O=C(CN1CCOCC1)Nc1nc(-c2ccc(Cl)cc2)cs1, the T/C (dose: 25.0 mg/kg/injection, schedule: Q01DX005 (ip), vehicle: DMSO) is reported as 98 % of control, the T/C (dose: 50.0 mg/kg/injection, schedule: Q01DX005 (ip), vehicle: DMSO) is reported as 100 % of control and the T/C (dose: 100.0 mg/kg/injection, schedule: Q01DX005 (ip), vehicle: DMSO) is reported as 99 % of control. For the same compound, the T/C (dose: 200.0 mg/kg/injection, schedule: Q01DX005 (ip), vehicle: DMSO) was 95 % of control and the T/C (dose: 400.0 mg/kg/injection, schedule: Q01DX005 (ip), vehicle: DMSO) was 98 % of control.
In the case of N#CCCS(=O)(=O)c1ccc(Cl)cc1, the T/C (dose: 50.0 mg/kg/injection, schedule: Q01DX009 (ip), vehicle: saline) is reported as 99 % of control, the T/C (dose: 100.0 mg/kg/injection, schedule: Q01DX009 (ip), vehicle: saline) is reported as 100 % of control and the T/C (dose: 200.0 mg/kg/injection, schedule: Q01DX009 (ip), vehicle: saline) is reported as 100 % of control.
In the case of COCCOCn1cccc1Cc1ccc(C)cc1, the T/C (dose: 100.0 mg/kg/injection, schedule: Q01DX001 (ip), vehicle: distilled water + alcohol) is reported as 100 % of control, the T/C (dose: 200.0 mg/kg/injection, schedule: Q01DX001 (ip), vehicle: distilled water + alcohol) is reported as 96 % of control and the T/C (dose: 400.0 mg/kg/injection, schedule: Q01DX001 (ip), vehicle: distilled water + alcohol) is reported as 99 % of control.
For O=[N+]([O-])c1c(N2CCN(CCO)CC2)nc2ccccn12, the T/C (dose: 12.5 mg/kg/injection, schedule: Q01DX009 (ip), vehicle: Klucel (hydroxypropylcellulose) (HPC)) was 99 % of control, the T/C (dose: 25.0 mg/kg/injection, schedule: Q01DX009 (ip), vehicle: Klucel (hydroxypropylcellulose) (HPC)) was 91 % of control and the T/C (dose: 50.0 mg/kg/injection, schedule: Q01DX009 (ip), vehicle: Klucel (hydroxypropylcellulose) (HPC)) was 105 % of control.

Source: PubChem BioAssay AID330 (DTP/NCI, 2004)
